Where “and” joins values, the source holds several entries; their conditions need not be identical. Equal values may be shown once.
Experiments:
B-RAF = target: T1, B-RAF (Homo sapiens, UniProt P15056, V600E); assay: DELFIA Kinase Assay; type: biochemical; conditions: 100 μM ATP, GST-MEK substrate
T1 construct: made in house
Description: Biological Methods—DELFIA Kinase Assay
Compounds were assessed by a kinase assay performed according to the following protocol.
DKB1 (DKB with B-RAF and MEK Protein):
Combine 4950 μL of DKB and 50 μL of 2.5 mg/ml GST-MEK stock (to give […] of MEK per 40 μL). Then add 22.5 μL of B-RAF to give ˜0.2 μL of B-RAF per 40 μL.
100 mM stock, dilute to 500 μM to give 100 μM final concentration in assay.
• 1. Preblock wells with 5% milk in TBS for 1 hour. • 2. Wash wells with 3× with 200 μL TBS. • 3. Plate out 40 μL of DKB1 for all inhibitors (test compounds), DMSO control, and optionally other control compounds. • 4. Plate out 40 μL of DKB2 for BO and EV wells. • 5. Add inhibitors (test compounds) at 0.5 μL per well according to desired plate layout. • 6. Add 0.5 μL DMSO to vehicle control wells. • 7. Add 2 μL of B-RAF to BO and EV wells. • 8. Pre-incubate with inhibitors (test compounds) for 10 minutes at room temperature with shaking. • 9. Add 10 μL of 500 μM ATP stock, in DKB, to give 100 μM assay concentration. • 10. Seal plates with TopSeal and incubate at room temperature with shaking for 45 minutes. • 11. Wash plates 3× with 200 μL 0.1% Tween20/Water to terminate reaction. • 12. Add 50 μL per well of antibody mix and incubate for 1 hour at room temperature with shaking. • 13. Wash plates 3× with 200 μL 0.1% Tween20/Water. • 14. Add 100 μL DELFIA enhancement solution per well, cover in foil, and incubate at room temperature for 30 minutes with shaking. • 15. Read on Victor using Europium protocol.
(§1) Values for the blank (Empty Vector) are subtracted from all values. The DMSO controls are set as 100% activity and assay points (the response) are calculated as a percentage of the DMSO control. Data are plotted using Graphpad Prism software and a non-linear regression line is calculated using a variable slope sigmoidal dose-response equation (Y=Bottom+(Top−Bottom)/(1+10^((LogEC50−X)*HillSlope)) where X is the logarithm of concentration. Y is the response). The IC50 generated by this procedure is the concentration of the drug that produces a percentage control fluorescence value midway between the saturation, and zero-effect plateaus. Three independent assays are usually performed and the mean IC50 is reported.

WM266.4 melanoma cells = assay: SRB Cell Proliferation Assay (SRB GI50); type: cell-based; conditions: Homo sapiens, WM 266-4, 144 h, 6 days growth
Description: Biological Methods —SRB Cell Proliferation Assay (SRB GI50)
Cultures of WM266.4 melanoma cells are routinely cultured in DMEM/10% foetal bovine serum, at 37° C., in 5% CO2 water saturated atmosphere. Cultures are maintained in exponential growth phase by sub-culturing before having become confluent (3-5 day intervals). Single cell suspensions are prepared by harvesting an 80 cm^2 tissue culture flask with 5 mL commercial trypsin EDTA. After 5 minutes, the detached cells are mixed with 5 mL fully complemented culture medium and centrifugally pelleted (1000 rpm for 7 minutes). After aspirating the supernatant, the cell pellet is re-suspended in 10 mL fresh medium and the cells fully disaggregated by drawing the whole volume up/down 5 times through a 19-gauge needle. The concentration of the cells is determined using a haemocytometer (1/10 dilution). A suitable volume to give at least a 2-fold excess for the number of tests being conducted, typically 100-200 mL, is prepared by diluting the cell suspension to 10,000/mL, and 100 μL/well dispensed into 96 well plates using a programmable 8-channel peristaltic pump, giving 1000 cells/well, leaving column 12 blank. The plates are returned to the incubator for 24 hours to allow the cells to re-attach.
The compounds being tested are prepared at 20 mM in dimethylsulphoxide. Aliquots (200 μL) are diluted into 20 mL culture medium giving 200 μM, and 10 serial dilutions of 3× performed by transferring 5 mL to 10 mL. Aliquots (100 μL) of each dilution are added to the wells, using an 8-channel pipettor, thus performing a final further 2× dilution, and giving doses ranging from 100 μM to 0.005 μM. Column 11 receives plain culture medium only. Each compound is tested in quadruplicate, each replicate being the average of four wells, and two plates per compound.
After a further 6 days growth, the plates are emptied, and the cells are fixed in 10% trichloroacteic acid for 10 minutes on ice. After thorough rinsing in running tap water, the plates are dried, and stained by adding 50 μL of a solution of 0.1% sulphorhodamine-B in 1% acetic acid, for 10 minutes at room temperature. The stain is poured out and the plates thoroughly rinsed under a stream of 1% acetic acid, thus removing unbound stain, and dried. The bound stain is taken into solution by addition of 150 μL Tris buffer pH 8, followed by 10 minutes on a plate-shaker (approximately 500 rpm). The absorbance at 540 nm in each well (being proportional to the number of cells present) is determined using a plate reader.
After averaging the results in rows A-D and E-H, the blank value (row 12) is subtracted, and results expressed as percentage of the untreated value (row 11). […] The GI50 generated by this procedure is the concentration of the drug that produces a percentage control A540 midway between the saturation, and zero-effect plateaus.

pERK = assay: Cell Based Phospho-ERK Assay; conditions: 6 h, 6 hours incubation with test compound
Description: Biological Methods—Cell Based Phosho-ERK Assay
Compounds were assessed using a cell-based assay which was performed according to the following protocol.
Plate out 16,000 cells/well in 99 μL medium in a 96-well plate.
• 1. Add 1 μL inhibitor to the cells (total […] solution). • 2. Incubate the cells with test compound for 6 hours at 37° C. • 3. Aspirate off the solution from all of the wells. • 4. Fixate the cells with 100 μL 4% formaldehyde/0.25% Triton X-100 PBS per well. • 5. Incubate the plate for 1 hour at 4° C. • 6. Aspirate off the fixing solution and add 300 μL TBS per well. • 7. Leave the plate overnight at 4° C. Day 2: • 1. Wash the plate 2× with 200 μL PBS per well. • 2. Block with 100 μL 5% dried milk in TBS. • 3. Incubate the plate for 20 minutes at 37° C. • 4. Wash the plate 2× with 0.1% tween/H2O. • 5. Add 50 μL of 3 μg/mL primary antibody pERK (Sigma M8159), diluted in 5% milk powder/TBS, to each well. • 6. Incubate the plate for 2 hours at 37° C. • 7. Wash the plate 3× with 0.1% tween/H2O. • 8. Add 50 μL of 0.45 μg/mL secondary Europium-labelled anti-mouse antibody (Perkin Elmer) to each well. • 9. Incubate the plate for 1 hour at 37° C. • 10. Wash the plate 3× with 0.1% tween/H2O. • 11. Add 100 μL enhancement solution (Perkin Elmer) to each well. • 12. Leave the plate for approximately 10 minutes at room temperature before gently shaking the plate. • 13. Read Europium Time Resolved Fluorescence in Victor2. • 14. Wash the plate 2× with 0.1% tween/H2O. • 15. Measure the protein concentration with BCA (Sigma) by adding 200 μL of solution per well. • 16. Incubate the plate for 30 minutes at 37° C. • 17. Read absorbance levels at 570 nm in a plate reader.
Note that Europium counts are normalised for protein levels by dividing counts by absorbance.
as §1, with “(no cells)” for “(Empty Vector)”

T1 sequence (P15056 whole entry V600E): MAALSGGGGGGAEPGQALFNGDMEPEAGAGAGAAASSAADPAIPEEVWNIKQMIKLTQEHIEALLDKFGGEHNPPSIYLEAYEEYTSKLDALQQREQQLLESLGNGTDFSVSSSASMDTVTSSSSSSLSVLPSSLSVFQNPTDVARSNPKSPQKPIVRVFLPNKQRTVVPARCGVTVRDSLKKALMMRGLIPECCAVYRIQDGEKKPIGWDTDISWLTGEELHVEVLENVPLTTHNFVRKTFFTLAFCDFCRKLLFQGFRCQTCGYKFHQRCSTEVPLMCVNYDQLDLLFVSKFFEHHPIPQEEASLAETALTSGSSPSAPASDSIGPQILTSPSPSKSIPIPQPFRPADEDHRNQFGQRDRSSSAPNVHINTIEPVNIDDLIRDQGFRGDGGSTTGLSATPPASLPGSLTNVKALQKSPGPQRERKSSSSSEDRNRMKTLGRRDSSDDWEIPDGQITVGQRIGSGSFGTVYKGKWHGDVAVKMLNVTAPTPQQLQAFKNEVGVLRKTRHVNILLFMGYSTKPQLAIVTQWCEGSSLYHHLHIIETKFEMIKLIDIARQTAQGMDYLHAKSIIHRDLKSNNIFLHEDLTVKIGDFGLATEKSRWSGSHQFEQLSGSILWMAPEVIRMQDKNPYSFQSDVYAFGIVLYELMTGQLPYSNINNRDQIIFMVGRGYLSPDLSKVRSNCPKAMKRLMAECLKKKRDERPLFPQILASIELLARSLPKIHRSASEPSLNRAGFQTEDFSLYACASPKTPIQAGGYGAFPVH

Structure (SMILES)	IC50 (B-RAF)	GI50 (WM266.4 melanoma cells)	IC50 (pERK)
O=C(Nc1cc(C(F)(F)F)ccc1F)Nc1ccc(Oc2ccnc3[nH]c(=O)cnc23)c2ccccc12 [AA-012, 1-(2-fluoro-5-(trifluoromethyl)phenyl)-3-(4-(3-oxo-3,4-dihydropyrido[2,3-b]pyrazin-8-yloxy)naphthalen-1-yl)urea]	< 1000 nM and 100 to 1000 nM	1000 to 10000 nM	
O=C(Nc1ccc(Cl)c(C(F)(F)F)c1)Nc1ccc(Oc2ccnc3ncc(=O)[nH]c23)c2ccccc12 [AA-037, 1-(4-chloro-3-(trifluoromethyl)phenyl)-3-(4-(1-oxo-1,2-dihydropyrido[2,3-b]pyrazin-8-yloxy)naphthalen-1-yl)urea]	< 1000 nM and 100 to 1000 nM	< 10000 nM	
CNc1cnc2c(Oc3ccc(NC(=O)Nc4cc(C(F)(F)F)ccc4F)c(F)c3)ccnc2n1 [AA-055, 1-(2-fluoro-4-(3-(methylamino)pyrido[3,2-b]pyrazin-8-yloxy)phenyl)-3-(2-fluoro-5-(trifluoromethyl)phenyl)urea]	< 1000 nM and 100 to 1000 nM	1000 to 10000 nM	
Cc1ccc(-n2nc(C(C)(C)C)cc2NC(=O)Nc2ccc(Oc3ccnc4[nH]c(=O)c(N)nc34)cc2F)cc1 [AA-057, 1-(4-(2-amino-3-oxo-3,4-dihydropyrido[2,3-b]pyrazin-8-yloxy)-2-fluorophenyl)-3-(3-tert-butyl-1-p-tolyl-1H-pyrazol-5-yl)urea]	100 to 1000 nM	< 1000 nM	< 1000 nM
Cc1ccc(-n2nc(C(C)(C)C)cc2NC(=O)Nc2ccc(Oc3ccnc4nc(CBr)c(=O)[nH]c34)cc2F)cc1 [AA-058, 1-(4-(3-(bromomethyl)-2-oxo-1,2-dihydropyrido[2,3-b]pyrazin-8-yloxy)-2-fluorophenyl)-3-(3-tert-butyl-1-p-tolyl-1H-pyrazol-5-yl)urea]	100 to 1000 nM	1000 to 10000 nM	1000 to 10000 nM
CSc1cc(Oc2ccnc3[nH]c(=O)c(C)nc23)ccc1NC(=O)Nc1cc(C(F)(F)F)ccc1F [AA-060, 1-(2-fluoro-5-(trifluoromethyl)phenyl)-3-(4-(2-methyl-3-oxo-3,4-dihydropyrido[2,3-b]pyrazin-8-yloxy)-2-(methylthio)phenyl)urea]	< 100 nM	< 1000 nM	< 1000 nM

Other lines, results leading:

IC50 (B-RAF)	GI50 (WM266.4 melanoma cells)	IC50 (pERK)	Structure (SMILES)
< 100 nM	< 1000 nM	< 1000 nM	CSc1cc(Oc2ccnc3[nH]c(=O)c(C)nc23)ccc1NC(=O)Nc1cc(C(C)(C)C)nn1-c1ccc(C)cc1 [AA-061, 1-(3-tert-butyl-1-p-tolyl-1H-pyrazol-5-yl)-3-(4-(2-methyl-3-oxo-3,4-dihydropyrido[2,3-b]pyrazin-8-yloxy)-2-(methylthio)phenyl)urea]
< 100 nM	< 1000 nM	< 1000 nM	COc1ccc(-n2nc(C(C)(C)C)cc2NC(=O)Nc2ccc(Oc3ccnc4[nH]c(=O)cnc34)cc2F)cn1 [AA-062, 1-(3-tert-butyl-1-(6-methoxypyridin-3-yl)-1H-pyrazol-5-yl)-3-(2-fluoro-4-(3-oxo-3,4-dihydropyrido[2,3-b]pyrazin-8-yloxy)phenyl)urea]
< 100 nM	< 1000 nM	< 1000 nM	COc1ccc(-n2nc(C(C)(C)C)cc2NC(=O)Nc2ccc(Oc3ccnc4[nH]c(=O)cnc34)cc2SC)cn1 [AA-063, 1-(3-tert-butyl-1-(6-methoxypyridin-3-yl)-1H-pyrazol-5-yl)-3-(2-(methylthio)-4-(3-oxo-3,4-dihydropyrido[2,3-b]pyrazin-8-yloxy)phenyl)urea]
100 to 1000 nM	1000 to 10000 nM		CN(C)c1cnc2c(Oc3ccc(NC(=O)Nc4cc(C(F)(F)F)ccc4F)c(F)c3)ccnc2n1 [AA-068, 1-(4-(3-(dimethylamino)pyrido[3,2-b]pyrazin-8-yloxy)-2-fluorophenyl)-3-(2-fluoro-5-(trifluoromethyl)phenyl)urea]
	1000 to 10000 nM	1000 to 10000 nM	CN(C)c1cnc2c(Oc3ccc(NC(=O)Nc4cc(C(C)(C)C)nn4-c4ccccc4)c(F)c3)ccnc2n1 [AA-070, 1-(3-Tert-butyl-1-phenyl-1H-pyrazol-5-yl)-3-(4-(3-(dimethylamino)pyrido[3,2-b]pyrazin-8-yloxy)-2-fluorophenyl)urea]
	< 1000 nM	< 1000 nM	Cc1ccc(-n2nc(C(C)(C)C)cc2NC(=O)Nc2ccc(Oc3ccnc4nc(N5CCOCC5)cnc34)cc2F)cc1 [AA-073, 1-(3-tert-butyl-1-p-tolyl-1H-pyrazol-5-yl)-3-(2-fluoro-4-(3-morpholinopyrido[3,2-b]pyrazin-8-yloxy)phenyl)urea]
	1000 to 10000 nM	< 1000 nM	CC(C)(C)c1cc(NC(=O)Nc2ccc(Oc3ccnc4[nH]c(=O)cnc34)cc2F)n(CC2CCC2)n1 [AA-099, 1-(3-Tert-butyl-1-(cyclobutylmethyl)-1H-pyrazol-5-yl)-3-(2-fluoro-4-(3-oxo-3,4-dihydropyrido[3,2-b]pyrazin-8-yloxy)phenyl)urea]

— patent publication US8198279B2, “Pyrido[2,3-b]pyrazin-8-substituted compounds and their use” (Institute of Cancer Research: Royal Cancer Hospital (The), priority 2007, dated 2012)
